In brackets after ≈: the same amount, converted by molar mass.
Legend:
[1] = system: Mycobacterium tuberculosis; experiment: Antimycobacterial activity against Mycobacterium tuberculosis H37Rv after 14 days by broth dilution method; type: functional; conditions: 336 h
[2] = Growth inhibition of HEK293 cells at 50 uM by MTT assay relative to control; type: cell-based; conditions: human, read-out: GI
[3] = Growth inhibition of human MCF7 cells at 50 uM by MTT assay relative to control; type: cell-based; conditions: read-out: GI
[4] = Growth inhibition of human PC3 cells at 50 uM by MTT assay relative to control; type: cell-based, PC-3; conditions: read-out: GI
[5] = Growth inhibition of HEK293 cells at 1 to 40 uM by MTT assay relative to control; type: cell-based; conditions: human, read-out: GI
[6] = Growth inhibition of human MCF7 cells at 1 to 40 uM by MTT assay relative to control; type: cell-based; conditions: read-out: GI
[7] = Growth inhibition of human PC3 cells at 1 to 40 uM by MTT assay relative to control; type: cell-based, PC-3; conditions: read-out: GI
[8] = Growth inhibition of human HCT116 cells at 1 to 40 uM by MTT assay relative to control; type: cell-based, HCT-116; conditions: read-out: GI
Staphylococcus aureus = experiment: Antibacterial activity against Staphylococcus aureus ATCC 25923 after 24 hrs; type: functional; conditions: ATCC 25923, 24 h
[9] = system: Staphylococcus epidermidis; experiment: Antibacterial activity against Staphylococcus epidermidis ATCC 12228 after 24 hrs; type: functional; conditions: ATCC 12228, 24 h
Bacillus subtilis = experiment: Antibacterial activity against Bacillus subtilis ATCC 11774 after 24 hrs; type: functional; conditions: ATCC 11774, 24 h
Micrococcus luteus = experiment: Antibacterial activity against Micrococcus luteus ATCC 10240 after 24 hrs; type: functional; conditions: ATCC 10240, 24 h
Enterococcus faecalis = experiment: Antibacterial activity against Enterococcus faecalis ATCC 51299 after 24 hrs; type: functional; conditions: ATCC 51299, 24 h
Escherichia coli = experiment: Antibacterial activity against Escherichia coli 10536 after 24 hrs; type: functional; conditions: Escherichia coli, 10536, 24 h
Klebsiella pneumoniae = experiment: Antibacterial activity against Klebsiella pneumoniae ATCC BAA-2146 after 24 hrs; type: functional; conditions: ATCC BAA-2146, 24 h
Pseudomonas aeruginosa = experiment: Antibacterial activity against Pseudomonas aeruginosa ATCC 10145 after 24 hrs; type: functional; conditions: ATCC 10145, 24 h
[10] = system: Mycolicibacterium smegmatis; experiment: Antimycobacterial activity against Mycobacterium smegmatis ATCC 607 after 24 hrs; type: functional; conditions: ATCC 607, 24 h
[11] = Growth inhibition of human HCT116 cells at 50 uM by MTT assay relative to control; type: cell-based, HCT-116; conditions: read-out: GI
HEK293 = experiment: Growth inhibition of HEK293 cells up to 80 uM by MTT assay relative to control; type: cell-based; conditions: human
[12] = Selectivity ratio of MIC for Mycobacterium smegmatis to MIC for Mycobacterium tuberculosis; type: functional
[13] = system: Mycolicibacterium smegmatis; experiment: Antimycobacterial activity against Mycobacterium smegmatis; type: functional
[14] = system: Mycobacterium tuberculosis; experiment: Antimycobacterial activity against Mycobacterium tuberculosis; type: functional

O=C1CCCC(=O)C1=CNc1ccc([N+](=O)[O-])cc1F
MIC [1]: 80 µg/mL (≈ 288 µM)

O=C1CCC(=O)C1=CNc1ccc([N+](=O)[O-])cc1F
MIC [1]: > 80 µg/mL

O=C1CCC(=O)C1=CNc1ccccc1O
MIC [1]: > 80 µg/mL

CC[C@@H](CO)NCCN[C@@H](CC)CO [ETHAMBUTOL]
MIC [1]: 1.25 µg/mL (≈ 6.12 µM)

CC1(C)CC(=O)C(=CNc2ccccc2C(F)(F)F)C(=O)C1
MIC [1]: > 80 µg/mL

CCCN(C=C1C(=O)CC(C)(C)CC1=O)CCC
MIC [1]: > 80 µg/mL

O=C1CC(c2ccccc2)CC(=O)C1=CNc1ccccc1O (stereo not drawn)
MIC [1]: 5 to 10 µg/mL (≈ 16.3 to 32.5 µM) | inhibition at 50 µM [2]: 52.8% | inhibition at 50 µM [3]: 16.5% | inhibition at 50 µM [4]: 20.4% | inhibition at up to 40 µM [5]: < 20% | inhibition at up to 40 µM [6]: < 20% | inhibition at up to 40 µM [7]: < 20% | inhibition at up to 40 µM [8]: < 20%

Cc1ccc(NC=C2C(=O)CC(C)(C)CC2=O)cc1C
MIC [1]: > 80 µg/mL

Cc1ccc(NC=C2C(=O)CC(C)(C)CC2=O)c(C)c1
MIC [1]: > 80 µg/mL

CCCCCNC=C1C(=O)CC(C)(C)CC1=O
MIC [1]: > 80 µg/mL

CC1(C)CC(=O)C(=CNc2ccc([N+](=O)[O-])cc2)C(=O)C1
MIC [1]: > 80 µg/mL

CC1(C)CC(=O)C(=CNc2ccccc2O)C(=O)C1
MIC [1]: 2.5 µg/mL (≈ 9.64 µM) | MIC (Staphylococcus aureus): > 128 µg/mL | MIC [9]: > 128 µg/mL | MIC (Bacillus subtilis): > 128 µg/mL | MIC (Micrococcus luteus): 128 µg/mL (≈ 494 µM) | MIC (Enterococcus faecalis): > 128 µg/mL | MIC (Escherichia coli): 32 to 64 µg/mL (≈ 123 to 247 µM) | MIC (Klebsiella pneumoniae): > 128 µg/mL | MIC (Pseudomonas aeruginosa): > 128 µg/mL | MIC [10]: > 80 µg/mL | inhibition at 50 µM [2]: 9.03% | inhibition at 50 µM [3]: 15.1% | inhibition at 50 µM [11]: 20.2% | inhibition at 50 µM [4]: 10.1% | inhibition at up to 40 µM [5]: < 20% | inhibition at up to 40 µM [6]: < 20% | inhibition at up to 40 µM [7]: < 20% | inhibition at up to 40 µM [8]: < 20% | growth inhibition (GI) (HEK293): < 20%

CC1(C)CC(=O)C(=CNc2ccc([N+](=O)[O-])cc2F)C(=O)C1
MIC [1]: 80 µg/mL (≈ 261 µM)

CC1(C)CC(=O)C(=CNc2ccc(F)cc2F)C(=O)C1
MIC [1]: > 80 µg/mL

CC1(C)CC(=O)C(=CNc2ccc(Br)cc2)C(=O)C1
MIC [1]: > 80 µg/mL

C[C@H]1COc2c(N3CCN(C)CC3)c(F)cc3c(=O)c(C(=O)O)cn1c23.C[C@H]1COc2c(N3CCN(C)CC3)c(F)cc3c(=O)c(C(=O)O)cn1c23.O [LEVOFLOXACIN]
MIC [1]: 2.5 µg/mL | MIC (Staphylococcus aureus): 0.078 to 0.156 µg/mL | MIC [9]: 0.039 to 0.078 µg/mL | MIC (Bacillus subtilis): 0.39 µg/mL | MIC (Micrococcus luteus): 0.078 µg/mL | MIC (Enterococcus faecalis): 0.156 µg/mL | MIC (Escherichia coli): 0.078 µg/mL | MIC (Klebsiella pneumoniae): 0.625 to 1.25 µg/mL | MIC (Pseudomonas aeruginosa): 0.312 to 0.625 µg/mL | MIC [10]: 0.156 µg/mL

CC1(C)CC(=O)C(=CNc2ccc([N+](=O)[O-])cc2Cl)C(=O)C1
MIC [1]: > 80 µg/mL

CC1(C)CC(=O)C(=CNc2ccccc2[N+](=O)[O-])C(=O)C1
MIC [1]: > 80 µg/mL

CCCCNC=C1C(=O)CC(C)(C)CC1=O
MIC [1]: > 80 µg/mL

CC1(C)CC(=O)C(=CNc2cc(Cl)c(Cl)cc2Cl)C(=O)C1
MIC [1]: > 80 µg/mL

O=C1CCCC(=O)C1=CNc1ccc([N+](=O)[O-])cc1Cl
MIC [1]: 40 to 80 µg/mL (≈ 136 to 271 µM)

CC1(C)CC(=O)C(=CSc2ccccc2O)C(=O)C1
MIC [1]: 40 to 80 µg/mL (≈ 145 to 289 µM)

CCCNC=C1C(=O)CC(C)(C)CC1=O
MIC [1]: > 80 µg/mL

CNC=C1C(=O)CC(C)(C)CC1=O
MIC [1]: > 80 µg/mL

O=C1CC(c2ccc(Cl)cc2)CC(=O)C1=CNc1ccccc1O (stereo not drawn)
MIC [1]: 20 µg/mL (≈ 58.5 µM) | inhibition at 50 µM [2]: 44% | inhibition at 50 µM [3]: 23.4% | inhibition at 50 µM [11]: 28.6% | inhibition at 50 µM [4]: 18.6% | inhibition at up to 40 µM [5]: < 20% | inhibition at up to 40 µM [6]: < 20% | inhibition at up to 40 µM [7]: < 20% | inhibition at up to 40 µM [8]: < 20%

CC1(C)CC(=O)C(=CNc2cccc(C(F)(F)F)c2)C(=O)C1
MIC [1]: > 80 µg/mL

CC1CC(=O)C(=CNc2ccccc2O)C(=O)C1 (stereo not drawn)
MIC [1]: 20 µg/mL (≈ 81.5 µM) | inhibition at 50 µM [2]: 6.08% | inhibition at 50 µM [3]: 16.6% | inhibition at 50 µM [11]: 35.7% | inhibition at 50 µM [4]: 8.2% | inhibition at up to 40 µM [5]: < 20% | inhibition at up to 40 µM [6]: < 20% | inhibition at up to 40 µM [7]: < 20% | inhibition at up to 40 µM [8]: < 20%

NNC(=O)c1ccncc1 [ISONIAZID]
MIC [1]: 0.313 µg/mL (≈ 2.28 µM) | Selectivity ratio [12]: 500 to 1000 | MIC [13]: 25 µg/mL (≈ 182 µM) | MIC [14]: 0.02 µg/mL (≈ 0.146 µM)

Cc1ccc(NC=C2C(=O)CC(C)(C)CC2=O)c(C)c1C
MIC [1]: > 80 µg/mL

CC1(C)CC(=O)C(=CNc2ccc([N+](=O)[O-])cc2[N+](=O)[O-])C(=O)C1
MIC [1]: > 80 µg/mL

CN[C@@H]1[C@H](O[C@H]2[C@H](O[C@H]3[C@H](O)[C@@H](O)[C@H](N=C(N)N)[C@@H](O)[C@@H]3N=C(N)N)O[C@@H](C)[C@]2(O)C=O)O[C@@H](CO)[C@H](O)[C@H]1O [STREPTOMYCIN]
MIC [1]: 1.56 µg/mL (≈ 2.68 µM)

CC1(C)CC(=O)C(=CNc2cccc([N+](=O)[O-])c2)C(=O)C1
MIC [1]: > 80 µg/mL

CC1(C)CC(=O)C(=CNCc2ccc(F)cc2)C(=O)C1
MIC [1]: > 80 µg/mL

O=C1CC(c2ccco2)CC(=O)C1=CNc1ccccc1O (stereo not drawn)
MIC [1]: 10 to 20 µg/mL (≈ 33.6 to 67.3 µM) | inhibition at 50 µM [2]: 46.4% | inhibition at 50 µM [3]: 2.92% | inhibition at 50 µM [11]: 42.8% | inhibition at 50 µM [4]: 26.1% | inhibition at up to 40 µM [5]: < 20% | inhibition at up to 40 µM [6]: < 20% | inhibition at up to 40 µM [7]: < 20% | inhibition at up to 40 µM [8]: < 20%

CC1(C)CC(=O)C(=CNc2ccccc2Br)C(=O)C1
MIC [1]: > 80 µg/mL

O=C1CCCC(=O)C1=CNc1ccccc1O
MIC [1]: 5 to 10 µg/mL (≈ 21.6 to 43.2 µM) | inhibition at 50 µM [2]: 28.3% | inhibition at 50 µM [3]: 14.5% | inhibition at 50 µM [11]: 10.6% | inhibition at 50 µM [4]: 29.5% | inhibition at up to 40 µM [5]: < 20% | inhibition at up to 40 µM [6]: < 20% | inhibition at up to 40 µM [7]: < 20% | inhibition at up to 40 µM [8]: < 20%

CC1(C)CC(=O)C(=CNc2ccc(Cl)cc2)C(=O)C1
MIC [1]: > 80 µg/mL

CO[C@H]1/C=C/O[C@@]2(C)Oc3c(C)c(O)c4c(O)c(c(/C=N/N5CCN(C)CC5)c(O)c4c3C2=O)NC(=O)/C(C)=C\C=C\[C@H](C)[C@H](O)[C@@H](C)[C@@H](O)[C@@H](C)[C@H](OC(C)=O)[C@@H]1C [RIFAMPIN]
MIC [1]: 0.078 µg/mL (≈ 0.0948 µM) | Selectivity ratio [12]: 500 to 1000 | MIC [13]: 100 µg/mL (≈ 122 µM) | MIC [14]: 0.2 µg/mL (≈ 0.243 µM)

CC1(C)CCC(=O)C(=CNc2ccccc2O)C1=O (mixture of isomers)
MIC [1]: 10 to 20 µg/mL | inhibition at 50 µM [2]: 64.1% | inhibition at 50 µM [11]: 60.7% | inhibition at 50 µM [4]: 41.2% | inhibition at up to 40 µM [5]: < 20% | inhibition at up to 40 µM [6]: < 20% | inhibition at up to 40 µM [7]: < 20% | inhibition at up to 40 µM [8]: < 20%

CC1(C)CC(=O)C(=CNc2cccc(Br)c2)C(=O)C1
MIC [1]: > 80 µg/mL

CC1(C)CC(=O)C(=CNc2ccccc2)C(=O)C1
MIC [1]: > 80 µg/mL

O=C1CCC(=O)C1=CNc1ccc([N+](=O)[O-])cc1Cl
MIC [1]: > 80 µg/mL

O=C1CCCC(=O)C1=CSc1ccccc1O
MIC [1]: 40 to 80 µg/mL (≈ 161 to 322 µM)

CC1(C)CC(=O)C(=CNc2cccc3ccccc23)C(=O)C1
MIC [1]: > 80 µg/mL
